Laboratory results: a melting point compilation (Tetko et al.; mined from patent text by program, amines drawn as free bases though some values may be those of a salt)

Compound	melting point [°C]
COc1ncccc1Nc1c(NC(NC(=O)c2cccc(C)c2)C(C)(C)Cc2ccccc2)c(=O)c1=O (stereo not given)	233 to 235
COCCN(CCOC)c1ccc(Nc2ncc3c(C)c(Br)c(=O)n(C4CCCC4)c3n2)nc1	94 to 95
CCOc1ccc(-c2ccc(N3CC(CNC(C)=O)OC3=O)cc2)ccc1=O (stereo not given)	228 to 229
CN(C)C(=O)c1sc(C(c2ccc(Cl)cc2)c2c(Cl)cc(-n3ncc(=O)[nH]c3=O)cc2Cl)nc1-c1ccccc1 (stereo not given)	150
COCCOc1ccc(N)c([N+](=O)[O-])c1	89 to 90
Cc1c(Br)c(Br)c(C)c(Br)c1Br	247 to 249
Cc1nccc(N2CCN(C(=O)N3CCN(C(=O)OC(C)(C)C)CC3)CC2)n1	212 to 213
Nc1nc2ncn(O)c2c(=O)[nH]1	> 300
CN1CCN(c2cc(F)cc3c(=O)cc(C(=O)Nc4ccc(N5CCN(C(=O)O)CC5)cc4)oc23)CC1	236 to 238
COc1cc(C(=O)N2CCC(CCN3CCC(Nc4nc5ccccc5n4Cc4ccc(Cl)s4)CC3)(c3ccc(F)c(F)c3)C2)cc(OC)c1OC (stereo not given)	110 to 120
COCCOc1cc(N)c(Cl)cc1C(=O)OC	121 to 122
CC12CCC3c4ccc(O)cc4CCC3C1CC(O)C2=C(F)F (stereo not given)	225 to 227
CS(=O)(=O)N=C(NCC(=O)O)Nc1ccc(C#N)cc1	170
CC(=O)SCC(Cc1ccccc1)C(=O)NN1CCCCCC1 (stereo not given)	126
Cc1ccc(S(=O)(=O)N2[C@@H](CCn3cccn3)CC[C@H]2c2ccc(F)cc2)cc1 (racemic)	121
Cc1c(-c2ccc(OCc3ccccc3)cc2)n(Cc2ccc(OCCN3CCCCCC3)cc2)c2ccc(OCc3ccccc3)cc12	106 to 107
CC(=O)Nc1nc(CCc2ccc(CON3C(=O)c4ccccc4C3=O)cc2)cs1	225 to 226
O=C(NNC(=S)NNC(=O)c1ccccc1)c1ccccc1	177 to 179
COC(=O)c1ccccc1S(=O)(=O)Cc1c(O[C@H](Cn2ccnc2)c2ccccc2)ccc2c1CCCC2=O	203 to 205
CC(C)(C)OC(=O)[C@H]1C[C@@H](C(=O)OCc2ccccc2)[C@@H](c2ccccc2)N1C(=O)CNC(=O)Nc1cccc(C(=O)OCc2ccccc2)c1 (racemic)	110

Compound	melting point [°C]
OCc1cc2cc(Br)ccc2[nH]1	111 to 112
NCCC(O)(c1ccccc1)c1ccccc1	134 to 136
Cc1ccc(-c2cc(C(O)C#Cc3ccc(C(=O)O)cc3)cc3c2C(C)(C)CCC3(C)C)cc1 (stereo not given)	180
CC(C)(C)OC(=O)NC1CC1F (stereo not given)	58 to 60
Cc1cc(C(C)(C)C)c(OC(=O)c2cc(C(C)(C)C)c(O)c(C(C)(C)C)c2)c(C)c1COC(=S)c1cc(C(C)(C)C)c(O)c(C(C)(C)C)c1	225 to 228
Cn1cc(-c2ncc(-c3ccc4cc(OC(Cc5ccccc5)C(=O)O)ccc4c3)o2)c2ccccc21 (stereo not given)	149 to 151
Cc1cc(S(=O)(=O)N2c3ccccc3-c3ccccc3C2C)ccc1O (stereo not given)	186 to 188
CC1COC2(CCN(C(=O)C(Cl)Cl)CC2)O1 (stereo not given)	115
CCCOc1ccc(F)cc1-c1ccc(C#N)c(=O)[nH]1	242 to 243
O=S1(=O)NCN(C2CC2)c2cc(F)c(Cl)cc21	155 to 158
ClCc1cn2cc(Cl)cc(Cl)c2n1	162 to 163
Cc1ccc(C(N)(c2ccc3c(c2)C(c2cccc(Cl)c2)Nc2nnnn2-3)c2cncn2C)cc1 (stereo not given)	140
COc1ccc(C)cc1NC(=O)Nc1ccc(N2CCN(C(=O)Nc3cc(OCCO)ccc3C)CC2)cc1	121 to 124
CCCN1CCC(c2cccc(C(N)=O)c2)CC1	182
CNC1=Nc2ccc(Cl)cc2C(c2ccccc2F)=NC1	204 to 206
CCC(c1ccc(NC(=O)Cc2ccccc2C)c([N+](=O)[O-])c1)n1ccnc1 (stereo not given)	122
CNc1cc(CC(C)C)ccc1-c1ccccc1S(=O)(=O)Nc1onc(C)c1C	125 to 128
COc1cc2nc(C)nc(Cl)c2cc1OCCCN1CCOCC1	116 to 118
CC1=C(C#N)C(c2ccccc2[N+](=O)[O-])C(C(=O)O)=C(C)N1 (stereo not given)	225
CCOC(=O)c1ccc(OCC#Cc2ccccc2)c(OC)c1	62 to 65

Further lines, results first:

melting point [°C]	Compound
111 to 114	CN(C)S(=O)(=O)n1cc(-c2ccccc2[N+](=O)[O-])nc1C#N
215 to 219	Nc1cc(-n2cc(C(=O)O)c(=O)c3cc(F)c(NCCO)c(Cl)c32)c(F)cc1F
150	NC1C2CN(C(=O)Nc3ccc(F)cc3)CC12 (stereo not given)
150 to 153	Nc1ccc(CCCn2cnnc2)cc1
339 to 341	COC(=O)c1ccc(C(=O)Nc2nc(-c3cccc(C)c3)c(-c3ccncn3)s2)cc1
190 to 191	CC(C)(C)C(=O)OCOC(=O)c1cn(CC(F)(F)F)c2cc3c(cc2c1=O)OCO3
91 to 92	COc1cc(C)c(N)c(C)c1Cc1ccc(C(C)C)cc1
273	Cn1cncc1C(O)(c1ccc(CO)cc1)c1ccc2c(c1)c(-c1cccc(Cl)c1)cc(=O)n2C (stereo not given)
207 to 210	O=C(O)C1=Cc2cc(-c3ccc(F)cc3)ccc2OC1C(F)(F)F (stereo not given)
149 to 150	O=C(C=C1CCCN1)c1cccs1
130 to 131	CC(=O)NC(C)(C)Cc1ccc2c(c1)CCC2
90 to 92	COc1c(CC(=O)O)cccc1Oc1ccccc1C
240	CCOc1cccc(CNC(=O)c2nc3scc(COCc4ccc(C(=O)O)cc4)c3c(=O)[nH]2)c1
140 to 142	CN(C)C(=O)n1nc(-c2ccncc2)nc1-c1ccncc1
244 to 245	CCC(=O)N1CCN(c2ccc(NC(=O)c3cc(=O)c4cc(F)cc(N5CCN(C)CC5)c4o3)cc2)CC1
112 to 113	Fc1cccc(F)c1-c1ccc2ncccc2c1
123 to 126	CCCSc1csc(C(=O)O)c1S(=O)(=O)NC(C)(C)C
56 to 60	C#CCOCC1CCC(COCC#C)CC1 (stereo not given)
119 to 121	COc1cc2c(cc1OC)CN(CCCCNC(=O)c1cc(Br)ccc1OCCF)CC2
57	CCCCCC(=O)C=CC1=C(CCC(=O)O)C(=O)CC1O (stereo not given)
165	CCc1nc(Cl)c2c(-c3ccc([N+](=O)[O-])o3)nn(C)c2n1
205 to 206	O=C(O)C1CCN(c2nnc(NCc3ccc4c(c3)OCO4)c3cnccc23)CC1
164 to 165	CCCc1nc2c(N)nc3cc(-c4ccccc4)ccc3c2n1CCCON=C(C)C
108 to 109	CCOC(=O)[C@H](Cc1ccc(OC)c(OC)c1)NC(=O)c1ccnc(Br)c1
> 310	CCn1cc(C(=O)O)c(=O)c2cc(F)c(-c3cc(C)nc(C)c3)cc21
166	CCOC(=O)N1CCN(C2=Nc3ccccc3Nc3ccsc32)CC1
44 to 46	CC1(C)OC[C@H](CCOc2c(C(C)(C)C)cc(SC(C)(C)Sc3cc(C(C)(C)C)c(O)c(C(C)(C)C)c3)cc2C(C)(C)C)O1
104 to 106	ON=C(Cl)c1ccc(Cl)c(Cl)c1

melting point [°C]	Compound
98.5 to 104	CCCc1ccc(NC=C(C(=O)OCC)C(=O)c2ccccc2Cl)cc1
376	CC(C)(C)c1ccc(-c2ccc3c(-c4ccc(C(C)(C)C)cc4)cc4c5cc(-c6ccc(C(C)(C)C)cc6)ccc5c(-c5ccc(C(C)(C)C)cc5)cc4c3c2)cc1
75 to 80	CC(C)C(=O)NC[C@H]1CN(c2ccc3c(c2)CCCc2cnn(C(=O)C(C)C)c2-3)C(=O)O1
216 to 218	CSc1nc(-c2ccncc2)nc(=O)n1C
144 to 146	CCCNCC1Cc2ccc(-c3ccc(=O)[nH]n3)cc2C1 (stereo not given)
102 to 104	COc1ccc(C2(C#Cc3ccc(C(=O)O)cc3)CCCC(=O)C2)cc1OC1CCCC1 (racemic)
154 to 155	Cn1c(CNCC2(C)COC2)cc2cc(NC(=O)c3ccc(OCC4CC4)cc3)ccc21
87.9 to 89	COCCCNS(=O)(=O)NC(=O)OCCCc1ccc(OCCOC)cc1Oc1ncc(Cl)cc1Cl
190 to 193	CCCCn1c(C)cc(=O)c(C(=O)Nc2ccccc2)c1-c1ccccc1
223 to 224	O=c1c2ccccc2nc(-c2cc(-c3ccccc3)c(N3CCOCC3)s2)n1-c1ccc(Cl)cc1
137 to 139	OCC1OC(n2cnc3c(NNC4COc5c(Cl)cccc5C4)ncnc32)C(O)C1O (stereo not given)
78 to 86	CC(C)C[C@@H](C(=O)N1CCN(C(c2ccc(F)cc2)c2ccc(F)cc2)CC1)N(Cc1ccc(C(C)(C)C)cc1)Cc1ccc(C(C)(C)C)cc1
200 to 201	Cc1c(CO)c(CO)c2n1Cc1c(c3ccccc3n1C)C2
126	CCOC(C)=CC(=O)Nc1ccc(Cl)c(Cl)c1
141	CC(C)c1ccc(C(=O)CCl)cc1S(N)(=O)=O
152 to 155	O=C(CCCCC(=O)NCC1Cc2c1ccc(OCc1ccccc1)c2OCc1ccccc1)NCCc1ccccc1 (stereo not given)
105 to 106	COc1cccc2c1OCC(C#N)=C2
214	CC1(C)Oc2ccc([N+](=O)[O-])cc2C(n2ccccc2=O)C1(C)O (stereo not given)
258 to 260	Oc1cc(Br)c2oc(-c3ccc(O)c(F)c3F)nc2c1
75 to 76	CCCCCCCc1cnc(N)s1
277 to 278	CC(C)(C)C(=O)c1c[nH]c2ncc(-c3ccc(S(N)(=O)=O)cc3)nc12
198 to 200	O=c1c2ccccc2[nH]n1Cc1cccc2ccccc12
170 to 172	CCc1nc2c(N)nc3ccccc3c2s1
111 to 113	COCCn1nc(-c2cc(C(C)(C)C)c(O)c(C(C)(C)C)c2)c2cccnc21
155 to 156	Cc1ccc(S(=O)(=O)N2CCc3ccccc3C(Oc3ccccc3)C2)cc1 (stereo not given)
65 to 75	Cc1cc(C(O)(C=Cc2ccc(Cl)cc2)C(F)(F)F)ccc1NC(=O)c1cccc(I)c1C(=O)NC(C)C (stereo not given)
105	COCCNc1ccc(S(=O)(=O)Oc2ccc(N)c([N+](=O)[O-])c2)cc1
